Values joined by “and” are separate entries in the source; they are usually repeats but may differ in a detail not shown here. Identical values can stand only once.
Assays:
PC3 cells = test: Annexin V-FITC/PI flow cytometry, PC3; type: cell-based, human; conditions: PC3, IC50 dose, 72 h
Experimental: The cells were cultured and harvested under the conditions described in the cell culture section. […] The effect of these compounds on the process of early and late apoptosis and necrosis was determined, as described previously, by dual staining with annexin V-FITC and propidium iodide according to manufacturer’s protocol (Becton Dickinson). The cells that were annexin V-FITC positive and PI-negative were identified as early apoptotic and annexin V-FITC and PI-positive as late apoptotic or necrotic.

[1] = tested on: Glutathione S-transferase A1 (GSTA1_HUMAN); test: LC–MS proteome analysis, GSTA1; type: cell-based, Homo sapiens; conditions: for Protein Intensity, % (GSTA1): IC50 concentration, % of control
Experimental: (§1) Enzymes involved in oxidoreductive potential were analyzed in the cell lysates obtained after treatment cells with selected conjugates for 24 h. Cells were washed with phosphate-buffered saline (PBS) and harvested, then centrifuged at 1000× g for 10 min. Then, lysis buffer (containing protease inhibitor, 1% RIPA Lysis and Extraction Buffer (ThermoFisher)) and cold PBS were added, and samples were sonicated three times in ice bath. Next, the cell lysates were centrifuged at 14,000× g at 4 °C for 15 min, and then supernatants were stored at […] before use. Protein concentration was measured by the Bradford method.
(§2) Normalized protein concentrations (5 µg) from cell lysate were precipitated by ice cold (–20 °C) acetonitrile (ACN, Merck, in ratio 1:4). Then, samples were centrifuged (–9 °C, 30 min., 18,000× g), the supernatant was discarded and ACN excess was evaporated using a vacuum centrifuge (5 min., room temp.). Protein pellet was dissolved in 40 mM ammonium bicarbonate. An amount of 500 mM dithiothreitol (DTT, with final concentration 20 mM) and 1 M iodoacetamide (IAA, with final concentration 40 mM) were used for reduction and alkylation processes. After 16 h of incubation in 37 °C with Trypsin Gold (Promega), digested protein samples were diluted with 0.1% formic acid (ThermoFisher) and centrifuged (+2 °C, 30 min, 18,000× g).
(§3) LC–MS analysis was carried out with the use of nanoUHPLC (nanoElute, Bruker) coupled by CaptiveSpray (Bruker) to ESI-Q-TOF mass spectrometer (Compact, Bruker). Two-column separation method was used, i.e., pre-column (300 µm × 5 mm, C18 PepMap 100, 5 µm, 100Å, Thermo Scientific) and Aurora separation column with CSI fitting (75 µm × 250 mm, C18 1.6 µm) in gradient 2% B to 35% B in 90 min with the 300 nL/min flow rate. Mobile phases (A) 0.1% formic acid in water and (B) 0.1% formic acid in ACN were used.
(§4) Sample ionizations were performed at a gas flow of 3.0 L/min, temperature of 150 °C and voltage of the capillary at 1600 V. The quadrupole energy was fixed to 5.0 eV and collision chamber energy 7.0 eV, with an ion transfer time of 90 µs. The ions were analyzed in the positive polarity mode in the range 150–2200 m/z, with the acquisition frequency of the 1 Hz spectrum, as well as with the autoMS/MS system.
(§5) The collected spectra were analyzed and calibrated using DataAnalysis software (Bruker) and then identified in ProteinScape (Bruker) by the MASCOT server. Protein identification was conducted using the online SwissProt and NCBIprot databases, and their references and biological significance were identified using Reactome.org, String.org and KEGG.

[2] = tested on: Thioredoxin-dependent peroxide reductase, mitochondrial (PRDX3_HUMAN); test: LC–MS proteome analysis, PRDX3; type: cell-based, Homo sapiens; conditions: IC50 concentration, % of control
Experimental: as §1, §2, §3, §4, §5

[3] = tested on: Glutathione S-transferase P (GSTP1_HUMAN); test: LC–MS proteome analysis, GSTP1; type: cell-based, Homo sapiens; conditions: IC50 concentration, % of control
Experimental: as §1, §2, §3, §4, §5

[4] = tested on: Glutathione S-transferase omega-1 (GSTO1_HUMAN); test: LC–MS proteome analysis, GSTO1; type: cell-based, Homo sapiens; conditions: IC50 concentration, % of control
Experimental: as §1, §2, §3, §4, §5

[5] = tested on: Glutathione reductase, mitochondrial (GSHR_HUMAN); test: LC–MS proteome analysis, GSHR; type: cell-based, Homo sapiens; conditions: IC50 concentration, % of control
Experimental: as §1, §2, §3, §4, §5

[6] = tested on: Peroxiredoxin-5, mitochondrial (PRDX5_HUMAN); test: LC–MS proteome analysis, PRDX5; type: cell-based, Homo sapiens; conditions: IC50 concentration, % of control
Experimental: as §1, §2, §3, §4, §5

[7] = tested on: Peroxiredoxin-6 (PRDX6_HUMAN); test: LC–MS proteome analysis, PRDX6; type: cell-based, Homo sapiens; conditions: IC50 concentration, % of control
Experimental: as §1, §2, §3, §4, §5

[8] = tested on: hospital S. aureus (MRSA); test: MIC, hospital S. aureus; type: cell-based, Staphylococcus aureus; conditions: clinical S. aureus rods (six for 1–4, 7, 8)
Experimental: (§6) The antimicrobial activity of the compounds was tested on Gram-positive bacteria (Staphylococcus aureus NCTC 4163, Staphylococcus aureus ATCC 25923, Staphylococcus aureus ATCC 6538, Staphylococcus aureus ATCC 29213, Staphylococcus epidermidis ATCC 12228, Staphylococcus epidermidis ATCC 35984), Gram-negative rods (Escherichia coli ATCC 10538, Escherichia coli ATCC 25922, Pseudomonas aeruginosa ATCC 15442, Pseudomonas aeruginosa ATCC 27863) and yeasts (Candida albicans ATCC 10231, Candida albicans ATCC 90028, Candida parapsilosis ATCC 22019). Hospital methicillin-resistant strains of Staphylococcus aureus and Staphylococcus epidermidis were obtained from the collection of the Department of Pharmaceutical Microbiology, Medical University of Warsaw, Poland.
(§7) Antifungal activities were assessed using Mueller–Hinton agar + 2% glucose and 0.5 µg/mL methylene blue dye medium. Sterile filter paper discs (9 mm diameter, Whatman Number 3 chromatography paper) were dripped with tested compound solutions (in dimethylsulfoxide, DMSO) to load 400 μg of a given compound per disc. Dry discs were placed on the surface of appropriate agar medium. The results (diameter of the growth inhibition zone) were read after 18 h of incubation at 35 °C. Minimal inhibitory concentration (MIC) was tested by the twofold serial microdilution method (in 96-well microtiter plates) using Mueller–Hinton broth medium (Beckton Dickinson) for bacteria or RPMI-1640 medium for Candida species, according to CLSI guidelines. The stock solution of tested agent was prepared in DMSO and diluted in sterile water. […] The final inoculum of all studied microorganisms was 10^5 CFU/ mL^−1 (colony forming units per ml). Minimal inhibitory concentrations (the lowest concentration of a tested agent that prevents visible growth of a microorganism) were read after 18 h (bacteria) or 24 h (yeasts) of incubation at 35 °C.

standard staphylococci = test: MIC, standard staphylococci; type: cell-based, Staphylococcus; conditions: standard staphylococci / S. aureus isolates
Experimental: as §6, §7

[9] = tested on: detoxifying and ROS-scavenging enzymes (GST, GR, SOD, PRDX); test: LC–MS proteome analysis, all 12 tested enzymes (text summaries); type: cell-based, human; conditions: PC3, IC50 concentration, span over enzymes
Experimental: as §1, §2
LC–MS analysis was carried out with the use of nanoUHPLC (nanoElute, Bruker) coupled by CaptiveSpray (Bruker) to ESI-Q-TOF mass spectrometer (Compact, Bruker). […]
as §4
The collected spectra were analyzed and calibrated using DataAnalysis software (Bruker) and then identified in ProteinScape (Bruker) by the MASCOT server. […]

SMILES | early apoptosis, % of cells (PC3 cells) | Protein Intensity, % (GSTA1) ([1]; PC3, 24 h) [%] | Protein Intensity, % (GSTA1) ([1]; SW480, 24 h) [%] | Protein Intensity, % (GSTA1) ([1]; SW620, 24 h) [%] | Protein Intensity, % (PRDX3) ([2]; PC3, 24 h) [%] | Protein Intensity, % (PRDX3) ([2]; SW480, 24 h) [%] | Protein Intensity, % (PRDX3) ([2]; SW620, 24 h) [%] | Protein Intensity, % (GSTP1) ([3]; PC3, 24 h) [%] | Protein Intensity, % (GSTP1) ([3]; SW480, 24 h) [%] | Protein Intensity, % (GSTP1) ([3]; SW620, 24 h) [%] | Protein Intensity, % (GSTO1) ([4]; PC3, 24 h) [%] | Protein Intensity, % (GSTO1) ([4]; SW480, 24 h) [%] | Protein Intensity, % (GSTO1) ([4]; SW620, 24 h) [%] | Protein Intensity, % (GSHR) ([5]; PC3, 24 h) [%] | Protein Intensity, % (GSHR) ([5]; SW480, 24 h) [%] | Protein Intensity, % (GSHR) ([5]; SW620, 24 h) [%] | Protein Intensity, % (PRDX5) ([6]; PC3, 24 h) | Protein Intensity, % (PRDX5) ([6]; SW480, 24 h) [%] | Protein Intensity, % (PRDX5) ([6]; SW620, 24 h) [%] | MIC (standard staphylococci) | also measured
O=[N+]([O-])c1cc([N+]2=C(Nc3ccccc3Br)[S][Cu-2]23[S]C(Nc2ccccc2Br)=[N+]3c2ccc(Cl)c([N+](=O)[O-])c2)ccc1Cl [Compound 1, Copper (II) complex with 1-(2-bromophenyl)-3-(4-chloro-3-nitrophenyl)thiourea] | one third | 84.4 | 78.3 | 50.2 | 69.5 | 95.2 | 69.9 | 95.0 | 84.8 | 74.4 | 65.0 | 70.9 | 85.5 | 71.1 | 58.1 | 69.1 | 29% and 29.3% | 77.3 | 88.3 |  | Protein Intensity, % (PRDX6) ([7]; PC3, 24 h): 66.6%; Protein Intensity, % (PRDX6) ([7]; SW480, 24 h): 75.1%; Protein Intensity, % (PRDX6) ([7]; SW620, 24 h): 83.2%
O=[N+]([O-])c1cc([N+]2=C(Nc3ccc(Cl)c(Cl)c3)[S][Cu-2]23[S]C(Nc2ccc(Cl)c(Cl)c2)=[N+]3c2ccc(Cl)c([N+](=O)[O-])c2)ccc1Cl [Compound 5, Copper (II) complex with 1-(4-chloro-3-nitrophenyl)-3-(3,4-dichlorophenyl)thiourea] |  |  |  |  |  |  |  |  |  |  |  |  |  |  |  |  |  |  |  | 16 to 32 µg/mL and 32 µg/mL | times stronger / more potent than ciprofloxacin [8]: 4–16 times
O=[N+]([O-])c1cc([N+]2=C(Nc3ccc(I)cc3)[S][Cu-2]23[S]C(Nc2ccc(I)cc2)=[N+]3c2ccc(Cl)c([N+](=O)[O-])c2)ccc1Cl [Compound 8, Copper (II) complex with 1-(4-iodophenyl)-3-(4-chloro-3-nitrophenyl)thiourea] | 45.7% ± 3.3% | 73.5 | 91.6 | 54.3 | 24.8 | 96.3 | 95.2 | 64.1 | 83.0 | 57.5 | 31.6 | 52.4 | 65.0 | 68.5 | 74.3 | 79.3 | 42.0% | 81.7 | 74.4 | 4 µg/mL | decrease in the amount of GSTA1 ([1]; SW620, IC50 concentration): 45.7%; reduction of intensity of the 12 tested enzymes [9]: 31.5–75.2%; Protein Intensity, % (PRDX6) ([7]; PC3, 24 h): 53.7%; Protein Intensity, % (PRDX6) ([7]; SW480, 24 h): 71.1%; Protein Intensity, % (PRDX6) ([7]; SW620, 24 h): 77.6%
O=[N+]([O-])c1cc([N+]2=C(Nc3ccccc3F)[S][Cu-2]23[S]C(Nc2ccccc2F)=[N+]3c2ccc(Cl)c([N+](=O)[O-])c2)ccc1Cl [Compound 7, Copper (II) complex with 1-(2-fluorophenyl)-3-(4-chloro-3-nitrophenyl)thiourea] | one third | 79.2 | 75.6 | 36.4 | 12.4 | 90.4 | 61.2 | 35.8 | 80.9 | 67.3 | 68.6 | 45.1 | 52.5 | 61.2 | 91.7 | 67.3 | 36.7% | 91.0 | 81.4 | 16 to 32 µg/mL | reduction of intensity of the 12 tested enzymes [9]: 20.8-87.6%; Protein Intensity, % (PRDX6) ([7]; PC3, 24 h): 35.0%; Protein Intensity, % (PRDX6) ([7]; SW480, 24 h): 68.3%; Protein Intensity, % (PRDX6) ([7]; SW620, 24 h): 67.5%
O=[N+]([O-])c1cc(NC2=[N+](c3ccc(Cl)c([N+](=O)[O-])c3)[Cu-2]3([S]2)[S]C(Nc2ccc(Cl)c([N+](=O)[O-])c2)=[N+]3c2ccc(Cl)c([N+](=O)[O-])c2)ccc1Cl [Compound 6, Copper (II) complex with 1,3-bis(4-chloro-3-nitrophenyl)thiourea] |  |  |  |  |  |  |  |  |  |  |  |  |  |  |  |  |  |  |  |  | times stronger / more potent than ciprofloxacin [8]: 4–16 times
O=[N+]([O-])c1cc([N+]2=C(Nc3ccc(F)c(Cl)c3)[S][Cu-2]23[S]C(Nc2ccc(F)c(Cl)c2)=[N+]3c2ccc(Cl)c([N+](=O)[O-])c2)ccc1Cl [Compound 4, Copper (II) complex with 1-(3-chloro-4-fluorophenyl)-3-(4-chloro-3-nitrophenyl)thiourea] |  |  |  |  |  |  |  |  |  |  |  |  |  |  |  |  |  |  |  | 4 µg/mL | 
O=[N+]([O-])c1cc([N+]2=C(Nc3cccc(Br)c3)[S][Cu-2]23[S]C(Nc2cccc(Br)c2)=[N+]3c2ccc(Cl)c([N+](=O)[O-])c2)ccc1Cl [Compound 2, Copper (II) complex with 1-(3-bromophenyl)-3-(4-chloro-3-nitrophenyl)thiourea] |  |  |  |  |  |  |  |  |  |  |  |  |  |  |  |  |  |  |  | 16 to 32 µg/mL | 

Reference: paper PMC8584173, “The Cytotoxic Effect of Copper (II) Complexes with Halogenated 1,3-Disubstituted Arylthioureas on Cancer and Bacterial Cells” (International Journal of Molecular Sciences, 2021)
